Source: ChEMBL document CHEMBL3856198, “Synthesis of novel 17-(4'-formyl)pyrazolylandrosta-5,16-dienes and their derivatives as potent 17α-hydroxylase/C17,20-lyase inhibitors or antiproliferative agents depending on the substitution pattern of the heteroring” (Eur J Med Chem, 2016)

Columns and labels:
[1] = Growth inhibition of human MDA-MB-361 cells at 30 uM after 72 hrs by MTT assay; format: functional; conditions: MDA-MB-361, 72 h, read-out: GI
[2] = Growth inhibition of human MDA-MB-231 cells at 10 uM after 72 hrs by MTT assay; format: functional; conditions: MDA-MB-231, 72 h, read-out: GI
[3] = Growth inhibition of human MDA-MB-231 cells at 30 uM after 72 hrs by MTT assay; format: functional; conditions: MDA-MB-231, 72 h, read-out: GI
[4] = Growth inhibition of human T47D cells at 30 uM after 72 hrs by MTT assay; format: functional; conditions: read-out: GI
[5] = Growth inhibition of human MCF7 cells at 30 uM after 72 hrs by MTT assay; format: functional; conditions: MCF7, 72 h, read-out: GI
[6] = Growth inhibition of human MDA-MB-361 cells at 10 uM after 72 hrs by MTT assay; format: functional; conditions: MDA-MB-361, 72 h, read-out: GI
[7] = Growth inhibition of human MCF7 cells at 10 uM after 72 hrs by MTT assay; format: functional; conditions: MCF7, 72 h, read-out: GI
[8] = Growth inhibition of human T47D cells at 10 uM after 72 hrs by MTT assay; format: functional; conditions: read-out: GI
[9] = Growth inhibition of human MDA-MB-361 cells after 72 hrs by MTT assay; format: functional, cell-based; conditions: MDA-MB-361, 72 h
[10] = Growth inhibition of human MDA-MB-231 cells after 72 hrs by MTT assay; format: functional, cell-based; conditions: MDA-MB-231, 72 h

Row | SMILES | inhibition of growth at 30 µM [1] [%] | inhibition of growth at 10 µM [2] [%] | inhibition of growth at 30 µM [3] [%] | inhibition of growth at 30 µM [4] [%] | inhibition of growth at 30 µM [5] [%] | inhibition of growth at 10 µM [6] [%] | inhibition of growth at 10 µM [7] [%] | inhibition of growth at 10 µM [8] [%] | IC50 [9] [µM] | IC50 [10] [µM]
1 | CC(=O)O[C@H]1CC[C@@]2(C)C(=CC[C@@H]3[C@@H]2CC[C@]2(C)C(c4nn(-c5ccc(Br)cc5)cc4C=O)=CC[C@@H]32)C1 | 55.1 | 21.7 | 51.9 | 63.6 | 60.6 | 33.8 | 41.2 | 51.4 | – | –
2 | CC(=O)O[C@H]1CC[C@@]2(C)C(=CC[C@@H]3[C@@H]2CC[C@]2(C)C(c4nn(C(C)=O)cc4C#N)=CC[C@@H]32)C1 | 64.6 | < 20 | 61.3 | 63.9 | 70 | < 20 | < 20 | < 20 | – | –
3 | CC(=O)O[C@H]1CC[C@@]2(C)C(=CC[C@@H]3[C@@H]2CC[C@]2(C)C(c4nn(-c5ccc(C)cc5)cc4C=O)=CC[C@@H]32)C1 | 34.9 | < 20 | 27.2 | 50.8 | 44.4 | < 20 | 24.6 | 37.2 | – | –
4 | Cc1ccc(-n2cc(CO)c(C3=CC[C@H]4[C@@H]5CC=C6C[C@@H](O)CC[C@]6(C)[C@H]5CC[C@]34C)n2)cc1 | 89.4 | 72.4 | 96.6 | 90.7 | 83.3 | 73.5 | 64.8 | 68.7 | – | –
5 | CC(=O)O[C@H]1CC[C@@]2(C)C(=CC[C@@H]3[C@@H]2CC[C@]2(C)C(c4nn(-c5ccc(C#N)cc5)cc4C=O)=CC[C@@H]32)C1 | 80.4 | 43 | 84.5 | 83.6 | 85.3 | 58.9 | 62.2 | 60.4 | – | –
6 | Cc1ccc(-n2cc(C=O)c(C3=CC[C@H]4[C@@H]5CC=C6C[C@@H](O)CC[C@]6(C)[C@H]5CC[C@]34C)n2)cc1 | 75.8 | 58.9 | 76.9 | 74.8 | 72.6 | 57.3 | 47.8 | 47.2 | – | –
7 | C[C@]12CC[C@H](O)CC1=CC[C@@H]1[C@@H]2CC[C@]2(C)C(c3nn(-c4ccc([N+](=O)[O-])cc4)cc3C=O)=CC[C@@H]12 | 80 | 51.8 | 77 | 79.6 | 75.1 | 63.9 | 64.8 | 72.5 | – | –
8 | CC(=O)O[C@H]1CC[C@@]2(C)C(=CC[C@@H]3[C@@H]2CC[C@]2(C)C(c4nn(-c5ccc(Cl)cc5)cc4C=O)=CC[C@@H]32)C1 | 63.7 | < 20 | 56.2 | 62.8 | 65.2 | 32.1 | 43.6 | 44.8 | – | –
9 | C[C@]12CC[C@H](O)CC1=CC[C@@H]1[C@@H]2CC[C@]2(C)C(c3nn(-c4ccc([N+](=O)[O-])cc4)cc3CO)=CC[C@@H]12 | 91.9 | 78.1 | 92.7 | 84.7 | 87.6 | 82.2 | 65.4 | 73.2 | 2.7 | 4.3
10 | CC(=O)O[C@H]1CC[C@@]2(C)C(=CC[C@@H]3[C@@H]2CC[C@]2(C)C(c4n[nH]cc4C=O)=CC[C@@H]32)C1 | 64.2 | < 20 | < 20 | 63.3 | 83.5 | < 20 | < 20 | < 20 | – | –
11 | Cn1cc(CO)c(C2=CC[C@H]3[C@@H]4CC=C5C[C@@H](O)CC[C@]5(C)[C@H]4CC[C@]23C)n1 | 47.1 | < 20 | 43.6 | 56.4 | 33.8 | 32.5 | < 20 | 37.4 | – | –
12 | CC(=O)O[C@H]1CC[C@@]2(C)C(=CC[C@@H]3[C@@H]2CC[C@]2(C)C(c4nn(-c5ccccc5)cc4C=O)=CC[C@@H]32)C1 | 76.9 | 37.9 | 71.5 | 79.9 | 86.3 | 52.8 | 57.1 | 31.4 | – | –
13 | Cn1cc(C#N)c(C2=CC[C@H]3[C@@H]4CC=C5C[C@@H](O)CC[C@]5(C)[C@H]4CC[C@]23C)n1 | 32.5 | < 20 | 32.6 | 29.6 | 40.9 | < 20 | < 20 | < 20 | – | –
14 | CC(=O)O[C@H]1CC[C@@]2(C)C(=CC[C@@H]3[C@@H]2CC[C@]2(C)C(c4nn(C)cc4C=O)=CC[C@@H]32)C1 | 55.6 | < 20 | 26.2 | 65.2 | 61.9 | < 20 | 30.9 | < 20 | – | –
15 | COc1ccc(-n2cc(CO)c(C3=CC[C@H]4[C@@H]5CC=C6C[C@@H](O)CC[C@]6(C)[C@H]5CC[C@]34C)n2)cc1 | 86.7 | 69.3 | 92.9 | 79.6 | 75.5 | 64.7 | 51.8 | 62.2 | – | –
16 | COc1ccc(-n2cc(C=O)c(C3=CC[C@H]4[C@@H]5CC=C6C[C@@H](OC(C)=O)CC[C@]6(C)[C@H]5CC[C@]34C)n2)cc1 | 66.7 | < 20 | 54.4 | 69.1 | 77.7 | 32.8 | 43.8 | 33.9 | – | –
17 | C[C@]12CC[C@H](O)CC1=CC[C@@H]1[C@@H]2CC[C@]2(C)C(c3nn(-c4ccc(Cl)cc4)cc3C=O)=CC[C@@H]12 | 60.5 | < 20 | 41.1 | 68.4 | 55.7 | 48.4 | 32.1 | 43.6 | – | –
18 | Cn1cc(C=O)c(C2=CC[C@H]3[C@@H]4CC=C5C[C@@H](O)CC[C@]5(C)[C@H]4CC[C@]23C)n1 | 70 | 86.8 | 93.4 | 70.4 | 48.6 | 62.1 | 42.2 | 62 | – | –
19 | C[C@]12CC[C@H](O)CC1=CC[C@@H]1[C@@H]2CC[C@]2(C)C(c3nn(-c4ccc(Br)cc4)cc3C=O)=CC[C@@H]12 | 60.4 | < 20 | 55.8 | 70.7 | 61 | 48.1 | 22.2 | 36.2 | – | –
20 | CC(=O)O[C@H]1CC[C@@]2(C)C(=CC[C@@H]3[C@@H]2CC[C@]2(C)C(c4nn(-c5ccc([N+](=O)[O-])cc5)cc4C=O)=CC[C@@H]32)C1 | 56.2 | < 20 | 22.7 | 62.8 | 51.9 | < 20 | < 20 | < 20 | – | –
21 | CC(=O)O[C@H]1CC[C@@]2(C)C(=CC[C@@H]3[C@@H]2CC[C@]2(C)C(c4nn(C)cc4C#N)=CC[C@@H]32)C1 | 53.1 | 30.5 | 34.9 | 60.4 | 50.3 | 30.8 | 41.8 | 21.7 | – | –
22 | C[C@]12CC[C@H](O)CC1=CC[C@@H]1[C@@H]2CC[C@]2(C)C(c3nn(-c4ccc(C#N)cc4)cc3C=O)=CC[C@@H]12 | 74.3 | 49.1 | 93.1 | 86.4 | 80.2 | 60.8 | 64.4 | 66.9 | – | –
